For 21 molecules, IC50 results are on record in ChEMBL document CHEMBL4417631, “Oral peptide inhibitors of interleukin-23 receptor and their use to treat inflammatory bowel diseases” (2017).

SMILES strings stand for the structures. pIC50: −log10 of the molar value. Where a SMILES comes first, the peptide text is derived from it.

This experiment addresses T1, Interleukin-23 receptor (Homo sapiens, UniProt Q5VWK5).
T1 sequence (Q5VWK5 whole entry): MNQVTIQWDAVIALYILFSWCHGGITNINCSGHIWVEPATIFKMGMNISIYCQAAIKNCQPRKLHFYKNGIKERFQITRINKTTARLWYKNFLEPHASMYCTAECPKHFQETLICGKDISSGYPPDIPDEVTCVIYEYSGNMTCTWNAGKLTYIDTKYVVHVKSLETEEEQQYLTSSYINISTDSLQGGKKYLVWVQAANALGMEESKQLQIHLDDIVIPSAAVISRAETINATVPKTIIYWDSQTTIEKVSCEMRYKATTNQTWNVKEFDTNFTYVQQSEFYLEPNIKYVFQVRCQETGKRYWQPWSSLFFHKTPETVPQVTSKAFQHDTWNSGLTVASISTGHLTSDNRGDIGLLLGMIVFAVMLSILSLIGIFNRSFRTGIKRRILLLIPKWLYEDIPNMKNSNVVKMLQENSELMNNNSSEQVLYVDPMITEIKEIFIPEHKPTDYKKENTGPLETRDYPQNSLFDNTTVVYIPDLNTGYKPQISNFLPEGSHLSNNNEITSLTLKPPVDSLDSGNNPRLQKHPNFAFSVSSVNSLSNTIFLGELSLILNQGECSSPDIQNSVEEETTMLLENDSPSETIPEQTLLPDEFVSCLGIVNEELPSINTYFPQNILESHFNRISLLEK
The experiment in a line: Inhibition of interleukin-23 binding to human interleukin-23 receptor incubated for 2 hrs by competitive binding ELISA.

As a reminder, the pIC50 is the negative decadic logarithm of the IC50, by convention in mol/L. Molecule `C[C@H](NC(=O)[C@@H](N)CS)C(=O)N[C@@H](CC(=O)O)C(=O)N[C@@H](Cc1c[nH]c2ccccc12)C(=O)N[C@@H](CS)C(=O)N[C@@H](CS)C(=O)N[C@@H](Cc1ccc(O)cc1)C(=O)N[C@@H](Cc1c[nH]c2ccccc12)C(=O)N[C@@H](CS)C(=O)N[C@H](C(=O)N[C@@H](Cc1ccccc1)C(=O)NCC(N)=O)[C@@H](C)O` (H-CADWCCYWCTFG-NH2) gave a pIC50 below 6.00.

`CC(C)[C@H](NC(=O)[C@H](Cc1c[nH]c2ccccc12)NC(=O)[C@H](CC(=O)O)NC(=O)[C@H](C)NC(=O)[C@@H](N)CS)C(=O)N[C@@H](CS)C(=O)N[C@@H](Cc1ccc(O)cc1)C(=O)N1Cc2ccccc2C[C@H]1C(=O)N[C@@H](Cc1cnc[nH]1)C(=O)N[C@H](C(=O)N[C@@H](Cc1ccccc1)C(=O)NCC(N)=O)[C@@H](C)O` showed a pIC50 below 6.00.

`CC(=O)N[C@@H](CS)C(=O)N[C@@H](C)C(=O)N[C@@H](CC(=O)O)C(=O)N[C@@H](Cc1c[nH]c2ccccc12)C(=O)N[C@H](C(=O)N[C@@H](CS)C(=O)N[C@@H](Cc1ccc(O)cc1)C(=O)N[C@@H](Cc1c[nH]c2ccccc12)C(=O)N[C@@H](CCCN)C(=O)N[C@@](C)(CC(C)C)C(=O)N[C@@H](Cc1ccccc1)C(=O)NCC(=O)NCCOCC(=O)N[C@H](CCCCN)C(N)=O)C(C)C` had a negative-log IC50 (pIC50) of 5.22.

For the molecule `CC(=O)N[C@@H](CS)C(=O)N[C@@H](C)C(=O)N[C@@H](CC(=O)O)C(=O)N[C@@H](Cc1c[nH]c2ccccc12)C(=O)N[C@H](C(=O)N[C@@H](CS)C(=O)N[C@@H](Cc1ccc(O)cc1)C(N)=O)C(C)C`, the pIC50 was below 4.52.

`CC(=O)N[C@H]1CCSC[C@@H](C(=O)N[C@@H](Cc2ccc(Cl)c(Cl)c2)C(=O)N[C@@H](Cc2ccc3ccccc3c2)C(=O)NC(C)(C)C(=O)N[C@@H](CCC(=O)O)C(=O)N[C@@H](CC(N)=O)C(=O)NCC(N)=O)NC(=O)[C@H](CCC(N)=O)NC(=O)[C@H](Cc2c[nH]c3ccccc23)NC(=O)[C@H]([C@@H](C)O)NC(=O)[C@H](CCC(N)=O)NC1=O` had a pIC50 of 6.00 to 7.00.

In turn, `CC(=O)NCCCC[C@H](NC(=O)[C@](C)(CCCCN)NC(=O)NC(=O)[C@H](Cc1ccc(OCCN)cc1)NC(=O)[C@@H]1CSCC[C@H](NC(C)=O)C(=O)N[C@@H](CCC(N)=O)C(=O)N[C@@H]([C@@H](C)O)C(=O)N[C@@H](Cc2c[nH]c3ccccc23)C(=O)N[C@@H](CCC(N)=O)C(=O)N1)C(=O)N[C@@H](CC(N)=O)C(=O)NCC(N)=O` gave a negative-log IC50 (pIC50) below 5.52.

Take `CC(=O)N[C@@H](CS)C(=O)N[C@@H](C)C(=O)N[C@@H](CC(=O)O)C(=O)N[C@@H](Cc1c[nH]c2ccccc12)C(=O)N[C@H](C(=O)N[C@@H](CS)C(=O)N[C@@H](Cc1ccc(O)cc1)C(=O)N[C@@H](Cc1cccc2ccccc12)C(=O)N(C)[C@@H](Cc1cnc[nH]1)C(=O)N[C@H](C)C(=O)N[C@@H](Cc1ccccc1)C(=O)NC(C)(C)C(N)=O)C(C)C`: the pIC50 is below 6.00.

Turning to `CC(=O)N[C@@H](CS)C(=O)N[C@@H](CCCNC(=N)N)C(=O)N[C@@H](CC(=O)O)C(=O)N[C@@H](Cc1c[nH]c2ccccc12)C(=O)N[C@@H](CCC(N)=O)C(=O)N[C@@H](CS)C(=O)N[C@@H](Cc1ccc(O)cc1)C(=O)N[C@@H](Cc1c[nH]c2ccccc12)C(=O)N[C@@H](Cc1cnc[nH]1)C(=O)N[C@@H](CCCCN)C(=O)N[C@@H](Cc1ccccc1)C(=O)NCC(=O)NCCOCCC(=O)N[C@H](CCCCN)C(=O)O`, the pIC50 was above 6.30.

In the case of `CC(=O)N[C@@H](CS)C(=O)N[C@@H](C)C(=O)N[C@@H](CC(=O)O)C(=O)N[C@@H](Cc1c[nH]c2ccccc12)C(=O)N[C@H](C(=O)N[C@@H](CS)C(=O)N[C@@H](Cc1ccc(O)cc1)C(=O)N[C@@H](Cc1ccc(C(F)(F)F)cc1)C(=O)N[C@@H](CCCN)C(=O)N[C@@H](CN)C(=O)N[C@@H](Cc1ccccc1)C(=O)NCC(=O)NCCOCC(=O)N[C@H](CCCCN)C(N)=O)C(C)C`, the negative-log IC50 (pIC50) is below 6.00.

In turn, `CC(=O)N[C@@H](CS)C(=O)N[C@@H](C)C(=O)N[C@@H](CC(=O)O)C(=O)N[C@@H](Cc1c[nH]c2ccccc12)C(=O)N[C@H](C(=O)N[C@@H](CS)C(=O)N[C@@H](Cc1ccc(O)cc1)C(=O)N[C@@H](Cc1c[nH]c2ccccc12)C(N)=O)C(C)C` showed a pIC50 below 4.52.

The molecule `CC(=O)N[C@H]1CCSC[C@@H](C(=O)N[C@@H](Cc2ccc(OCCN)cc2)C(=O)N[C@@H](Cc2ccc3ccccc3c2)C(=O)N[C@@](C)(CCCCN)C(=O)N[C@@H](CCC(=O)O)C(=O)N[C@@H](CC(N)=O)C(=O)NCC(N)=O)NC(=O)[C@H](CCC(N)=O)NC(=O)[C@@H]2Cc3ccccc3CN2C(=O)[C@H]([C@@H](C)O)NC(=O)[C@H](CCC(N)=O)NC1=O` showed a pIC50 below 5.52.

Regarding `CC(=O)N[C@H](CCCCN)C(=O)N[C@@H](CS)C(=O)N[C@@H](CCCNC(=N)N)C(=O)N[C@@H](CC(=O)O)C(=O)N[C@@H](Cc1c[nH]c2ccccc12)C(=O)N[C@@H](CCC(N)=O)C(=O)N[C@@H](CS)C(=O)N[C@@H](Cc1ccc(O)cc1)C(=O)N[C@@H](Cc1cccc2ccccc12)C(=O)N[C@@H](Cc1cnc[nH]1)C(=O)N[C@H](C(=O)N[C@@H](Cc1cnc[nH]1)C(=O)N(C)CC(=O)NCCOCCC(=O)N[C@H](CCCNC(=N)N)C(N)=O)[C@@H](C)O`, the pIC50 is 6.00 to 6.30.

For the molecule `CC(=O)N[C@@H](CS)C(=O)N[C@@H](CCC(N)=O)C(=O)N[C@H](C(=O)N[C@@H](Cc1c[nH]c2ccccc12)C(=O)N[C@@H](CCC(N)=O)C(=O)N[C@@H](CS)C(=O)N[C@@H](Cc1ccc(O)cc1)C(=O)N[C@@H](CCc1ccccc1)CC(=O)N[C@@H](CCCNC(=N)N)C(=O)N[C@H](C(=O)N[C@@H](CC(N)=O)C(=O)NCC(=O)NCCOCC(=O)N[C@H](CCCCN)C(N)=O)C(C)C)[C@@H](C)O`, the pIC50 is below 4.52.

On to `CC(=O)N[C@@H](CS)C(=O)N[C@@H](C)C(=O)N[C@@H](CC(=O)O)C(=O)N[C@@H](Cc1c[nH]c2ccccc12)C(=O)N[C@H](C(=O)N[C@@H](CS)C(=O)N[C@@H](Cc1ccc(O)cc1)C(=O)N[C@@H](Cc1c[nH]c2ccccc12)C(=O)N[C@@H](CCCN)C(=O)N[C@H](C(=O)N[C@@H](Cc1ccccc1)C(=O)NCC(=O)NCCC(=O)N[C@H](CCCCN)C(N)=O)C1CCCCC1)C(C)C`, for which the negative logarithm of the IC50 (pIC50) was below 4.52.

As for `CC(=O)N[C@@H](CCC(N)=O)C(=O)N[C@H](C(=O)N[C@@H](Cc1c[nH]c2ccccc12)C(=O)N[C@@H](CCC(N)=O)C(=O)N[C@@H](CS)C(=O)N[C@@H](Cc1ccc(O)cc1)C(=O)N[C@@H](Cc1c[nH]c2ccccc12)C(=O)N(C)[C@@H](CC(C)C)C(=O)N[C@@H](CCC(=O)O)C(=O)N[C@@H](CC(N)=O)C(=O)NCC(N)=O)[C@@H](C)O`, the pIC50 was below 5.22.

Consider `CC(=O)N[C@@H](CS)C(=O)N[C@@H](CCC(N)=O)C(=O)N[C@H](C(=O)N[C@@H](Cc1c[nH]c2ccccc12)C(=O)N[C@@H](CCC(N)=O)C(=O)N[C@@H](CS)C(=O)N[C@@H](Cc1ccc(O)cc1)C(=O)N[C@H](CC(=O)N[C@@H](CCCNC(=N)N)C(=O)N[C@H](C(=O)N[C@@H](CC(N)=O)C(=O)NCC(=O)NCCOCC(=O)N[C@H](CCCCN)C(N)=O)C(C)C)Cc1ccccc1)[C@@H](C)O`, for which the pIC50 is below 4.52.

For `CC(C)[C@H](NC(=O)[C@H](Cc1c[nH]c2ccccc12)NC(=O)[C@H](CC(=O)O)NC(=O)[C@H](C)NC(=O)[C@@H](N)CS)C(=O)N[C@@H](CS)C(=O)N[C@@H](Cc1ccc(O)cc1)C(=O)N[C@@H](Cc1cccc2ccccc12)C(=O)N[C@@H](Cc1cnc[nH]1)C(=O)N[C@H](C(=O)N[C@@H](Cc1ccccc1)C(=O)N(C)CC(=O)O)[C@@H](C)O`, the pIC50 was below 6.00.

`CC(=O)N[C@@H](CS)C(=O)N[C@@H](C)C(=O)N[C@@H](CC(=O)O)C(=O)N[C@@H](Cc1c[nH]c2ccccc12)C(=O)N[C@H](C(=O)N[C@@H](CS)C(=O)N[C@@H](Cc1ccc(O)cc1)C(=O)N[C@@H](Cc1c[nH]c2ccccc12)C(=O)N[C@@H](Cc1cnc[nH]1)C(=O)N[C@H](C(=O)N[C@@H](Cc1ccccc1)C(=O)NCC(=O)NCCC(=O)N[C@H](CCCCN)C(=O)O)[C@@H](C)O)C(C)C` had a pIC50 above 6.30.

`CC(=O)N[C@@H](CS)C(=O)N[C@H](C(=O)N[C@H](C(=O)N[C@@H](Cc1c[nH]c2ccccc12)C(=O)N[C@@H](CCC(=O)O)C(=O)N[C@@H](CS)C(=O)N[C@@H](Cc1ccc(O)cc1)C(=O)N[C@@H](Cc1c[nH]c2ccccc12)C(=O)N[C@@H](Cc1cnc[nH]1)C(=O)N[C@@H](CCC(=O)O)C(=O)N[C@@H](Cc1ccc(O)cc1)C(=O)NCC(N)=O)[C@@H](C)O)[C@@H](C)O` (Ac-CTTWECYWHEYG-NH2) showed a pIC50 above 6.30.

`CC(=O)N[C@@H](CS)C(=O)N[C@@H](CCC(N)=O)C(=O)N[C@H](C(=O)N[C@@H](Cc1c[nH]c2ccccc12)C(=O)N[C@@H](CCC(N)=O)C(=O)N[C@@H](CS)C(=O)N[C@@H](Cc1ccc(O)cc1)C(=O)N[C@@H](Cc1c[nH]c2ccccc12)C(=O)N[C@@H](CCCNC(=N)N)C(=O)N[C@@H](CCC(=O)O)C(=O)N[C@@H](CC(N)=O)C(=O)NCC(=O)NCCOCC(=O)N[C@H](CCCNC(=N)N)C(N)=O)[C@@H](C)O` showed a pIC50 above 6.30.

With `CC(=O)N[C@@H](CS)C(=O)N[C@@H](CCC(N)=O)C(=O)N[C@H](C(=O)N[C@@H](Cc1c[nH]c2ccccc12)C(=O)N[C@@H](CCC(N)=O)C(=O)N[C@@H](CS)C(=O)N[C@@H](Cc1ccc(O)cc1)C(=O)N[C@@](C)(Cc1c[nH]c2ccccc12)C(=O)N[C@@H](CCC(C)C)C(=O)N[C@@H](CCC(=O)O)C(=O)N[C@@H](CCC(N)=O)C(=O)NCC(N)=O)[C@@H](C)O`, the pIC50 is below 4.52.
